Holding throughout (type): cell-based, influenza virus
For experiment [1], the system named is rgA/Giessen/6/09 (H1N1-WT).
For experiment [2], the system named is rgA/Victoria/3/75 (H3N2-WT).
The subject of experiment [3] is wild type (wt) strain of A/Mississippi/3/2001 (H1N1).

With `O=C(O)c1ccc(F)c(F)c1Nc1ccc(I)cc1Cl` [ATR002, 2-(2-chloro-4-iodophenylamino)-N-3,4-difluoro benzoic acid], the “activity lower (than BLXM)” value in experiment [1] came out at 13%. Moreover, in experiment [2], the antiviral activity result is recorded as “revealed its potency against both variants”.

For `COC(=O)OCOc1c2n(ccc1=O)N([C@@H]1c3ccccc3SCc3c1ccc(F)c3F)[C@@H]1COCCN1C2=O` [BLXM], the “reduction of the viral titer” value in experiment [1] was “approximate complete reduction of the viral titer”.

In the case of `O=C(NOCC1CC1)c1ccc(F)c(F)c1Nc1ccc(I)cc1Cl` [CI-1040], the antiviral effectiveness entry in experiment [3] is “very effective”.

For the molecule `CCOC(=O)C1=C[C@@H](OC(CC)CC)[C@H](NC(C)=O)[C@@H](N)C1` [oseltamivir], the antiviral effectiveness result in experiment [3] is listed as “very effective”.

Values taken from patent US20220370384A1, “COMBINATIONS OF MEK INHIBITORS WITH CAP-DEPENDENT ENDONUCLEASE INHIBITORS” (priority 2019, published 2022).
